“Also recorded” adds a separate entry of the source.
Tests used:
[1] = system: U937 human leukemic monocyte lymphoma cell line; assay: Antiproliferative activity to U937 human leukemic monocyte lymphoma cell line; assay type: cell-based
Experimental: The antiproliferative activity of the compounds of Examples to A375P human melanoma cell line and U937 human leukemic monocyte lymphoma cell line are evaluated and listed in the following Table 1.

[2] = biological target: ABL1 (Homo sapiens, UniProt P00519); assay: Kinase panel screening; assay type: biochemical; conditions: 10 μM concentration; read-out: Inhibition Rate (Unit: %) ABL1
Experimental: (§1) To Compound 10c of Example 23, kinase panel screening was carried out to 32 kinds of kinases in 10 μM concentration and the results are listed in the following Table 2.

[3] = biological target: AKT1 (Homo sapiens, UniProt P31749); assay: Kinase panel screening; assay type: biochemical; conditions: 10 μM concentration; read-out: Inhibition Rate (Unit: %) AKT1
Chain of AKT1 (P31749 whole entry, species assumed): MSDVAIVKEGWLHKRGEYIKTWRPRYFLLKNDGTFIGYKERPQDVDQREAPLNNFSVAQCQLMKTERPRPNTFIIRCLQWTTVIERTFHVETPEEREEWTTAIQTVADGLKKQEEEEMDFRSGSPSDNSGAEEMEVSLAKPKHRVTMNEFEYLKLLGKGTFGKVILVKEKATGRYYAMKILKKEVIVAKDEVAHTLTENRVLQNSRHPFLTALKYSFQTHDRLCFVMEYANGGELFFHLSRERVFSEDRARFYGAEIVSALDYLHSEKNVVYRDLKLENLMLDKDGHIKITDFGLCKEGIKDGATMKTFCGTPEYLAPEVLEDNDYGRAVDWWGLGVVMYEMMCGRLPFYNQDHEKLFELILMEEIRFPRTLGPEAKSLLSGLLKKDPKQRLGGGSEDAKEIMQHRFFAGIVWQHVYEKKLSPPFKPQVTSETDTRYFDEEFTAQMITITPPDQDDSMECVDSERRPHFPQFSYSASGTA
Experimental: as §1

[4] = biological target: ALK (Homo sapiens, UniProt Q9UM73); assay: Kinase panel screening; assay type: biochemical; conditions: 10 μM concentration; read-out: Inhibition Rate (Unit: %) ALK
Experimental: as §1

[5] = biological target: Aurora A (Homo sapiens, UniProt O14965); assay: Kinase panel screening; assay type: biochemical; conditions: 10 μM concentration; read-out: Inhibition Rate (Unit: %) Aurora A
Chain of Aurora A (O14965 whole entry): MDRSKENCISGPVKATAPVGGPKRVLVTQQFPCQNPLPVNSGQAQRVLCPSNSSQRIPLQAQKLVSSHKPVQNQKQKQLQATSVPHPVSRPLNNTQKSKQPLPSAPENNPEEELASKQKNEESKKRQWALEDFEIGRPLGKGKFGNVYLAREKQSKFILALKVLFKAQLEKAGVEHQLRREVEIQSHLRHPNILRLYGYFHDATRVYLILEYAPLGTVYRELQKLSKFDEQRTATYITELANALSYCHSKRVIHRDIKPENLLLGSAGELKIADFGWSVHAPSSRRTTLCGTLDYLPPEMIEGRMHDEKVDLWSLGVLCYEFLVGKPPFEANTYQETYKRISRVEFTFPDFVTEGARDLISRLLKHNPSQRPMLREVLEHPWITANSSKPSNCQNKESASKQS
Experimental: as §1

[6] = biological target: BRAF (Homo sapiens, UniProt P15056); assay: Kinase panel screening; assay type: biochemical; conditions: 10 μM concentration
Chain of BRAF (P15056 whole entry): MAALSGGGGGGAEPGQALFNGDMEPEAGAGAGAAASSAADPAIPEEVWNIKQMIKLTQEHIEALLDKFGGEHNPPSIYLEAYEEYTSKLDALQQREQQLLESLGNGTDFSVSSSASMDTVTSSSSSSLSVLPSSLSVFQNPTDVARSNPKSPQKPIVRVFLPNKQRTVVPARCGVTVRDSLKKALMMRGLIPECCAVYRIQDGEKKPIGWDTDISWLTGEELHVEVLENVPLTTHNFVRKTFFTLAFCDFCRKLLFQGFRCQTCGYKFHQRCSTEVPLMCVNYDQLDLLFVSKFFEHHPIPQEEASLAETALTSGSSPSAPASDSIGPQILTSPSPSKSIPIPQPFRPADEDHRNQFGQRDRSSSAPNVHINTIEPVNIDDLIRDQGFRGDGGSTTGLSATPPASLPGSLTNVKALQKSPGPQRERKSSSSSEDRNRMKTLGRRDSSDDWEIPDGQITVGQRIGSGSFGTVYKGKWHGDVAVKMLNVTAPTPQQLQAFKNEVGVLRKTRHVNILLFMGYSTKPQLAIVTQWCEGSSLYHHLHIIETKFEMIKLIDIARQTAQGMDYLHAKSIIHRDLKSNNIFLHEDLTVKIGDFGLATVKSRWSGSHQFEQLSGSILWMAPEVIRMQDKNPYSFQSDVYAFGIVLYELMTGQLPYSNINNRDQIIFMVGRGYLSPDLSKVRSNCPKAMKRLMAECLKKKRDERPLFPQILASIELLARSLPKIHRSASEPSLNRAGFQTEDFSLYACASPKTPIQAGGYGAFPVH
Experimental: as §1

[7] = biological target: BRAF (V600E) (Homo sapiens, UniProt P15056, V600E); assay: Kinase panel screening; assay type: biochemical; conditions: 10 μM concentration
Chain of BRAF (V600E) (P15056 whole entry V600E): as the sequence (P15056 whole entry) above, with V600E counted along it
Experimental: as §1

[8] = biological target: BTK (Homo sapiens, UniProt Q06187); assay: Kinase panel screening; assay type: biochemical; conditions: 10 μM concentration; read-out: Inhibition Rate (Unit: %) BTK
Chain of BTK (Q06187 whole entry, species assumed): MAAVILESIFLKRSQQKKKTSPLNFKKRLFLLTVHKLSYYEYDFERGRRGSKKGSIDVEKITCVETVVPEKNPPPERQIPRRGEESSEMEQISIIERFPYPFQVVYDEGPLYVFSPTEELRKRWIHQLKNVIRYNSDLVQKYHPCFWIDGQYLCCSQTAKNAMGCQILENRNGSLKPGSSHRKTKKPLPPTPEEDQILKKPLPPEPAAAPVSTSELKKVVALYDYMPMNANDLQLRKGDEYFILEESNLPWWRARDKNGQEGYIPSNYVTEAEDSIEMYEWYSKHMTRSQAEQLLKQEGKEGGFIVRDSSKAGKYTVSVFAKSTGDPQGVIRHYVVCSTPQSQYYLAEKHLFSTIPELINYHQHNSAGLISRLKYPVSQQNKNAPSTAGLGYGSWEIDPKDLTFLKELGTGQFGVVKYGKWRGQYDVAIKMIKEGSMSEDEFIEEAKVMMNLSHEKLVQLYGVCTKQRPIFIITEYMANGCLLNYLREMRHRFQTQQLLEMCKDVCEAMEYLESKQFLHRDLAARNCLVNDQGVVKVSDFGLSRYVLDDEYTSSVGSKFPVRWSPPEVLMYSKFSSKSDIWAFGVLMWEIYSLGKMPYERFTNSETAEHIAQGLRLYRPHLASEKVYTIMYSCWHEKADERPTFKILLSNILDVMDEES
Experimental: as §1

[9] = biological target: CDK1/cyclin B (Homo sapiens, UniProt P06493); assay: Kinase panel screening; assay type: biochemical; conditions: 10 μM concentration; read-out: Inhibition Rate (Unit: %) CDK1/cyclin B
Experimental: as §1

[10] = biological target: EGFR (Homo sapiens, UniProt P00533); assay: Kinase panel screening; assay type: biochemical; conditions: 10 μM concentration; read-out: Inhibition Rate (Unit: %) EGFR
Experimental: as §1

[11] = biological target: ERK1 (Homo sapiens, UniProt P27361); assay: Kinase panel screening; assay type: biochemical; conditions: 10 μM concentration; read-out: Inhibition Rate (Unit: %) ERK1
Chain of ERK1 (P27361 whole entry, species assumed): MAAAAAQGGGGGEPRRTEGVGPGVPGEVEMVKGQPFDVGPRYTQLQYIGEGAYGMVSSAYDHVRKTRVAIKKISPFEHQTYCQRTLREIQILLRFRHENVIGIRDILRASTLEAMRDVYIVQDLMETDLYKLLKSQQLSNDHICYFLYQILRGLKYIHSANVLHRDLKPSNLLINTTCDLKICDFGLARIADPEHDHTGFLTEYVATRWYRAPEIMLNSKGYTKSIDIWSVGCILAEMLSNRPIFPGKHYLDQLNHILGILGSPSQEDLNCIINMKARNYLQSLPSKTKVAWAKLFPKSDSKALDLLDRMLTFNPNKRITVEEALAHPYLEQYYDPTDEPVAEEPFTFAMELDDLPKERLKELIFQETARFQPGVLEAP
Experimental: as §1

[12] = biological target: FAK/PTK2 (Homo sapiens, UniProt Q05397); assay: Kinase panel screening; assay type: biochemical; conditions: 10 μM concentration; read-out: Inhibition Rate (Unit: %) FAK/PTK2
Experimental: as §1

[13] = biological target: FGFR3 (Homo sapiens, UniProt P22607); assay: Kinase panel screening; assay type: biochemical; conditions: 10 μM concentration; read-out: Inhibition Rate (Unit: %) FGFR3
Chain of FGFR3 (P22607 23-806, species assumed): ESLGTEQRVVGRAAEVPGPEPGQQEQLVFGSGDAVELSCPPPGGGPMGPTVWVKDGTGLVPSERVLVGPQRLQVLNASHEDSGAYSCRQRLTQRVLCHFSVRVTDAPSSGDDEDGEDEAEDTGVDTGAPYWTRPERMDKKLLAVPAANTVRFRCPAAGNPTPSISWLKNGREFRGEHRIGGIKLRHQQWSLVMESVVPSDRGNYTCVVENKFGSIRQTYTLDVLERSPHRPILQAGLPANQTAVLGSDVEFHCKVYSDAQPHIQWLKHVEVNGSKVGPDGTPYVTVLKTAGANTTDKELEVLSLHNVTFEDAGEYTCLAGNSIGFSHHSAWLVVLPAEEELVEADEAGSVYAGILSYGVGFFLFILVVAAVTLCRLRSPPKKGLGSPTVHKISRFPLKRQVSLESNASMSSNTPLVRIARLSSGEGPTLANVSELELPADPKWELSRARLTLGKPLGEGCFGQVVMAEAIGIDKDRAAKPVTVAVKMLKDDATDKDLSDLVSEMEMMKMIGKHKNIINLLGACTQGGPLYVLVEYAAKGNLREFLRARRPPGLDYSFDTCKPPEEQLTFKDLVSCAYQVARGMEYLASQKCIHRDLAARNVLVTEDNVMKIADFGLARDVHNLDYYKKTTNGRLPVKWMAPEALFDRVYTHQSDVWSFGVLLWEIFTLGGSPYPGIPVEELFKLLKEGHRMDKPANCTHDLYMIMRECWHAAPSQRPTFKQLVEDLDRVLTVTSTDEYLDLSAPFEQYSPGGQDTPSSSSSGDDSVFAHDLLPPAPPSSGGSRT
Experimental: as §1

[14] = biological target: FLT3 (Homo sapiens, UniProt P36888); assay: Kinase panel screening; assay type: biochemical; conditions: 10 μM concentration; read-out: Inhibition Rate (Unit: %) FLT3
Experimental: as §1

[15] = biological target: FMS (Homo sapiens, UniProt P07333); assay: Kinase panel screening; assay type: biochemical; conditions: 10 μM concentration; read-out: Inhibition Rate (Unit: %) FMS
Experimental: as §1

[16] = biological target: JAK3 (Homo sapiens, UniProt P52333); assay: Kinase panel screening; assay type: biochemical; conditions: 10 μM concentration; read-out: Inhibition Rate (Unit: %) JAK3
Experimental: as §1

[17] = biological target: JNK3 (Homo sapiens, UniProt P53779); assay: Kinase panel screening; assay type: biochemical; conditions: 10 μM concentration; read-out: Inhibition Rate (Unit: %) JNK3
Chain of JNK3 (P53779 whole entry, species assumed): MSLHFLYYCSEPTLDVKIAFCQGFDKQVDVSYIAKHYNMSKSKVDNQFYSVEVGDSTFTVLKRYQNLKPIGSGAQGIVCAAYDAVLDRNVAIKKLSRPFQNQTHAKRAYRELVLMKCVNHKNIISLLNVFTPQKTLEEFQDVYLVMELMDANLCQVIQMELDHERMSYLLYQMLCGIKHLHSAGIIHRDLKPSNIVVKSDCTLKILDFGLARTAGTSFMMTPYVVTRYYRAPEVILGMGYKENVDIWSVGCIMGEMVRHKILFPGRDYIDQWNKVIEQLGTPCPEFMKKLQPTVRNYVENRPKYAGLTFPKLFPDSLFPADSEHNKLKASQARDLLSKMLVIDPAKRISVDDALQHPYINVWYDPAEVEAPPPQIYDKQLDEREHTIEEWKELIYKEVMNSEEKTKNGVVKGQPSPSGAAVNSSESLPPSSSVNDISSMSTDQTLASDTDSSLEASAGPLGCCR
Experimental: as §1

[18] = biological target: LCK (Homo sapiens, UniProt P06239); assay: Kinase panel screening; assay type: biochemical; conditions: 10 μM concentration; read-out: Inhibition Rate (Unit: %) LCK
Experimental: as §1

[19] = biological target: LYN (Homo sapiens, UniProt P07948); assay: Kinase panel screening; assay type: biochemical; conditions: 10 μM concentration; read-out: Inhibition Rate (Unit: %) LYN
Experimental: as §1

[20] = biological target: MEK1 (Homo sapiens, UniProt Q02750); assay: Kinase panel screening; assay type: biochemical; conditions: 10 μM concentration; read-out: Inhibition Rate (Unit: %) MEK1
Experimental: as §1

[21] = biological target: T1, P38a/MAPK14 (Homo sapiens, UniProt Q16539); assay: Kinase panel screening; assay type: biochemical; conditions: 10 μM concentration; read-out: Inhibition Rate (Unit: %) P38a/MAPK14
T1 sequence (Q16539 whole entry): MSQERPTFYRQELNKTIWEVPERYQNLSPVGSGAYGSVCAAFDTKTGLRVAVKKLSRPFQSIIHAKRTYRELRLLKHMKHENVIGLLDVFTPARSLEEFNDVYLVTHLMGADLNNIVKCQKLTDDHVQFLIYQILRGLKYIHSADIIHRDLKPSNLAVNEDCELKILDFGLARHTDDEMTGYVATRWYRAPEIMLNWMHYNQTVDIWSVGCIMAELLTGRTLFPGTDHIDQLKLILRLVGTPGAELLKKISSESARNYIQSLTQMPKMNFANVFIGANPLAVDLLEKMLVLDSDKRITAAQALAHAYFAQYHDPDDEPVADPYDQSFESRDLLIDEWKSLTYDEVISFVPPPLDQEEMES
Experimental: as §1

[22] = system: PKA; assay: Kinase panel screening; assay type: biochemical; conditions: 10 μM concentration
Experimental: as §1

[23] = biological target: PLK1 (Homo sapiens, UniProt P53350); assay: Kinase panel screening; assay type: biochemical; conditions: 10 μM concentration; read-out: Inhibition Rate (Unit: %) PLK1
Experimental: as §1

[24] = biological target: RAF1 (Homo sapiens, UniProt P04049); assay: Kinase panel screening; assay type: biochemical; conditions: 10 μM concentration
Chain of RAF1 (P04049 whole entry): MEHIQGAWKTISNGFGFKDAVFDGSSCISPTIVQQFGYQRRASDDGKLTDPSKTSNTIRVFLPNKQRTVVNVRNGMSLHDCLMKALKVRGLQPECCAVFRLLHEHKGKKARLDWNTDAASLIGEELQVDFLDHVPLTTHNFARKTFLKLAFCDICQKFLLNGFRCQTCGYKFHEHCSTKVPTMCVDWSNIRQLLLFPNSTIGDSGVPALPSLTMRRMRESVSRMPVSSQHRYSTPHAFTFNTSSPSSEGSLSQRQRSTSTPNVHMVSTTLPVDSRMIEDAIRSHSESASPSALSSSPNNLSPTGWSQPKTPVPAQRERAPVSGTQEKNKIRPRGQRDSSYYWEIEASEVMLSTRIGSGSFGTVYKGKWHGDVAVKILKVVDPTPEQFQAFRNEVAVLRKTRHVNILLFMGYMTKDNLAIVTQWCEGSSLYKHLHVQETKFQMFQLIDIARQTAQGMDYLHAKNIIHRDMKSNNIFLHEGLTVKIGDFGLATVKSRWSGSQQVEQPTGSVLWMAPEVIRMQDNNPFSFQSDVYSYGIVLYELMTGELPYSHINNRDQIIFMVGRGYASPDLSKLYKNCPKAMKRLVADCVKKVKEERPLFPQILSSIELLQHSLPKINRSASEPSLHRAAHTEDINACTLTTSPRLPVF
Experimental: as §1

[25] = biological target: RON/MST1R (Homo sapiens, UniProt Q04912); assay: Kinase panel screening; assay type: biochemical; conditions: 10 μM concentration; read-out: Inhibition Rate (Unit: %) RON/MST1R
Experimental: as §1

[26] = biological target: ROS/ROS1 (Homo sapiens, UniProt P08922); assay: Kinase panel screening; assay type: biochemical; conditions: 10 μM concentration; read-out: Inhibition Rate (Unit: %) ROS/ROS1
Experimental: as §1

[27] = biological target: SYK (Homo sapiens, UniProt P43405); assay: Kinase panel screening; assay type: biochemical; conditions: 10 μM concentration; read-out: Inhibition Rate (Unit: %) SYK
Experimental: as §1

[28] = biological target: c-MET (Homo sapiens, UniProt P08581); assay: Kinase panel screening; assay type: biochemical; conditions: 10 μM concentration; read-out: Inhibition Rate (Unit: %) c-MET
Experimental: as §1

[29] = biological target: mTOR/FRAP1 (Homo sapiens, UniProt P42345); assay: Kinase panel screening; assay type: biochemical; conditions: 10 μM concentration; read-out: Inhibition Rate (Unit: %) mTOR/FRAP1
Experimental: as §1

[30] = biological target: T1, P38a/MAPK14; assay: Enzymatic activity (IC50) to kinases; assay type: biochemical; conditions: read-out: IC50 (Unit: nM) P38a/MAPK14

GI50 ([1]; U-937, U937 human leukemic monocyte lymphoma cell line, read-out: U937 (GI50, Unit: μM)): 2.73 µM | inhibition at 10 µM [2]: 6.9% | inhibition at 10 µM [3]: 12.9% | inhibition at 10 µM [4]: 4.9% | inhibition at 10 µM [5]: 17.6% | Inhibition Rate (Unit: %) BRAF ([6]; 10 µM): 99.9% | inhibition at 10 µM ([6]; read-out: Inhibition Rate (Unit: %) BRAF): 99% | Inhibition Rate (Unit: %) BRAF (V600E) ([7]; 10 µM): 96.1% | inhibition at 10 µM ([7]; read-out: Inhibition Rate (Unit: %) BRAF (V600E)): 99% | inhibition at 10 µM [8]: 0% | inhibition at 10 µM [9]: 34.8% | inhibition at 10 µM [10]: 0% | inhibition at 10 µM [11]: 0% | inhibition at 10 µM [12]: 1.2% | inhibition at 10 µM [13]: 3.5% | inhibition at 10 µM [14]: 68.4% | inhibition at 10 µM [15]: 33.6% | inhibition at 10 µM [16]: 0% | inhibition at 10 µM [17]: 0% | inhibition at 10 µM [18]: 5.8% | inhibition at 10 µM [19]: 8.1% | inhibition at 10 µM [20]: 0% | inhibition at 10 µM [21]: 94.3% | Inhibition Rate (Unit: %) PKA [22]: 0% | inhibition at 10 µM [23]: 9.9% | Inhibition Rate (Unit: %) RAF1 ([24]; 10 µM): 98.7% | inhibition at 10 µM ([24]; read-out: Inhibition Rate (Unit: %) RAF1): 99% | inhibition at 10 µM [25]: 0.42% | inhibition at 10 µM [26]: 0.73% | inhibition at 10 µM [27]: 0% | inhibition at 10 µM [28]: 17.6% | inhibition at 10 µM [29]: 0% | IC50 [30]: 571 nM
Structure (SMILES): C[C@H](O)CNc1nccc(-n2ccnc2Cc2cccc(NC(=O)Nc3ccc(C(F)(F)F)c(Cl)c3)c2)n1 [Example 23, (S)-1-(3-chloro-4-(trifluoromethyl)phenyl)-3-(3-((1-(2-((2-hydroxypropyl)amino)pyrimidin-4-yl)-1H-imidazol-2-yl)methyl)phenyl)urea]
potency against U937, in words ([1]; U937 cell line, comparison with Sorafenib): large potencies; also recorded: better potencies than Sorafenib

Source: patent publication US9540348B2, “Imidazole-1-yl pyrimidine derivatives, or pharmacutically acceptable salt thereof, and pharmaceutic composition comprising the same as an active ingredient” (Industry-University Cooperation Foundation Hanyang …, priority 2015, dated 2017)
